In this assay the test system is Spodoptera littoralis. The assay can be described thus: Antifeedant activity against Spodoptera littoralis. In kind it is functional.

`CC1(C)CC(=O)C[C@@]2(C)[C@H](c3ccoc3)C(=O)[C@H]3O[C@@]312` (relative stereo) yielded an AFI of 45%.
Next, `CC1(C)CC(=O)C[C@@]2(C)[C@H](c3ccsc3)C(=O)[C@H]3O[C@@]312`: 24%.

(Values after ChEMBL document CHEMBL3045852, “Synthesis of limonoid CDE fragments related to limonin and nimbinim” (2010).)
